{
  "source": "patent US7098215B2",
  "about": "“Nitrogenous compounds and antiviral drugs containing the same” (Kureha Chemical Industry Co., Ltd., priority 2000, dated 2006)",
  "key": {"[1]": {"system": "HIV-1 (NL4-3)", "test": "Antiviral effect in SCID mice transplanted with human PBMCs and infected with HIV-1 (NL4-3), HIV-1 p24 by ELISA", "assay_type": "in vivo", "settings": "SCID mice with human PBMCs, virus NL4-3, 0.1 ml/2 mM solution/mouse intraperitoneally, 12 days after infection", "method": "The effect of the antiviral drug on SCID mice (immunodeficiency mice) was examined.\nTMβ-1 (rat anti-mouse IL-2Rβ monoclonal antibody) was intraperitoneally administered to C.B-17 SCID mice (8 weeks-old, female, provided by CLEA Japan, Inc.) in the amount of 1 mg/mouse to exterminate NK cells. After 2 days, 1.5×10^6 human PBMCs were transplanted in the spleen together with human rIL-4 (0.2 μg/mouse). On the same day, the compound No. 86 (0.1 ml/2 mM solution/mouse) or a medium (0.1 ml) (control) was intraperitoneally administered. After 1 day, HIV-1 (NL4-3) (0.2 ml/1×10^4 TCID50/ml) was intraperitoneally administered to cause virus infection. The same amount of the compound No. 86 (or the medium) was intraperitoneally administered on each of 4 consecutive days thereafter. rIL-4 (0.2 μg) was also intraperitoneally administered 4 days after infection. 12 days after infection, blood plasma and abdominal cavity washing solutions were collected to measure the amount of HIV-1 P^24 using an ELISA kit."}, "[2]": {"system": "HIV-1IIIB infected MT-4 cells", "test": "Anti-HIV activity: protection of HIV-1IIIB infected MT-4 cells, MTT method", "assay_type": "cell-based", "settings": "MOI 0.01, culture for 5 days, concentration inhibiting 50% of cytotoxicity due to HIV infection", "method": "HIV-1IIIB infected MT-4 cells were added to 96-well microtiter plates (3.0×10^4/well, MOI (Multiplicity of infection): 0.01), together with test compounds at different concentrations immediately after the infection. After culture for 5 days in a carbon dioxide incubator at 37° C., the number of surviving cells was counted by MTT (tetrazolium) method (Pawels et al., J. Virol. Methods, 20, 309-321, 1988)."}, "[3]": {"system": "ICR male mice", "test": "Acute toxicity in ICR mice, intraperitoneal administration", "assay_type": "in vivo", "settings": "3 per group, 50 mg/kg intraperitoneally, twice a day, for four days, number of dead animals after 5 days", "method": "Acute toxicity of the antiviral drug was examined. Three groups of 7 week-old, ICR male mice, each group consisting of 3 mice, were bred for one week. The compounds prepared in the Examples, dissolved in a physiological saline solution or distilled water, were intraperitoneally administered at a dose of 50 mg/kg, twice a day, for four days. After 5 days, the number of dead animals was examined."}},
  "data": [
    {"smiles": "C[C@H](NC(=O)[C@H](CCCN=C(N)N)NC(=O)c1ccc(CNCc2ccccn2)cc1)c1cccc2ccccc12", "note": "[Compound No. 86, N^α-(4-(N-2-picolylaminomethyl)benzoyl)-L-arginine (1′S)-1′-(1-naphthyl)ethylamide]", "values": [
      {"measurement": "p24 level Abdominal cavity washing solution", "setting": "[1]", "value": "<5", "unit": "pg/mL"},
      {"measurement": "p24 level Plasma", "setting": "[1]", "value": "<5", "unit": "pg/mL"},
      {"measurement": "EC50", "setting": "[2]", "value": 0.043, "unit": "µM"},
      {"measurement": "Dead mouse", "setting": "[3]", "value": "0/3"}
    ]}
  ]
}
